Measured values published in patent publication US20220081421A1, “ANTIBACTERIAL COMPOUNDS” (Forge Therapeutics, Inc., priority 2018, published 2022).
Values after ≈ are worked out from the molar mass of the structure shown. Blank lines part the entries; values can stand above or below the molecule they belong to.

Legend:
K. pneumoniae = test: MIC by broth microdilution (CLSI), K. pneumoniae; assay type: cell-based; conditions: broth microdilution, cation adjusted Mueller-Hinton Broth, 35° C., 18-24 h; for MIC: Klebsiella pneumoniae, read-out: K. pneumoniae MIC
Method: (§1) Minimal inhibitory concentrations (MIC) were determined by the broth microdilution method in accordance with the Clinical and Laboratory Standards Institute (CLSI) guidelines. In brief, organism suspensions were adjusted to a 0.5 McFarland standard to yield a final inoculum between 3×10^5 and 7×10^5 colony-forming units (CFU)/mL. Drug dilutions and inocula were made in sterile, cation adjusted Mueller-Hinton Broth (Beckton Dickinson). An inoculum volume of 100 μL was added to wells containing 100 μL of broth with 2-fold serial dilutions of drug. All inoculated microdilution trays were incubated in ambient air at 35° C. for 18-24 h. Following incubation, the lowest concentration of the drug that prevented visible growth (OD600 nm<0.05) was recorded as the MIC. Performance of the assay was monitored by the use of laboratory quality-control strains and levofloxacin, a compound with a defined MIC spectrum, in accordance with CLSI guidelines.

E. coli = test: MIC by broth microdilution (CLSI), E. coli; assay type: cell-based; conditions: broth microdilution, cation adjusted Mueller-Hinton Broth, 35° C., 18-24 h; for MIC: Escherichia coli, read-out: E. coli MIC
Method: as §1

SMILES: O=c1ccoc(CCc2ccc(C#Cc3ccc(CN4CCOCC4)cc3)cc2)c1O [Compound 117, 3-hydroxy-2-(4-((4-(morpholinomethyl)phenyl)ethynyl)phenethyl)-4H-pyran-4-one]
- MIC (K. pneumoniae): > 32 µg/mL
- MIC (E. coli): 8 to 32 µg/mL (≈ 19.3 to 77 µM)

SMILES: O=C(NCC(F)F)C(Cc1ccc(-c2ccc(-n3cccn3)cc2)cc1)c1nc[nH]c(=O)c1O (stereo not drawn) [Compound 38, 3-(4′-(1H-pyrazol-1-yl)-[1,1-biphenyl]-4-yl)-N-(2,2-difluoroethyl)-2-(5-hydroxy-6-oxo-1,6-dihydropyrimidin-4-yl)propanamide]
- MIC (K. pneumoniae): > 32 µg/mL
- MIC (E. coli): > 32 µg/mL

SMILES: O=c1ccoc(CC(CO)c2ccc(C#Cc3ccc(CN4CCOCC4)cc3)cc2)c1O (stereo not drawn) [Compound 137, 3-hydroxy-2-(3-hydroxy-2-(4-((4-(morpholinomethyl)phenyl)ethynyl)phenyl)propyl)-4H-pyran-4-one]
- MIC (K. pneumoniae): 1 to 8 µg/mL (≈ 2.24 to 18 µM)
- MIC (E. coli): 1 to 8 µg/mL (≈ 2.24 to 18 µM)

SMILES: CC(=O)NCC(Cc1ccc(C#CC#CC2CC2)c(F)c1)c1nc[nH]c(=O)c1O (stereo not drawn) [Compound 64, N-(3-(4-(cyclopropylbuta-1,3-diyn-1-yl)-3-fluorophenyl)-2-(5-hydroxy-6-oxo-1,6-dihydropyrimidin-4-yl)propyl)acetamide]
- MIC (K. pneumoniae): 1 to 8 µg/mL (≈ 2.54 to 20.3 µM)
- MIC (E. coli): 1 to 8 µg/mL (≈ 2.54 to 20.3 µM)

SMILES: O=C(NCCc1nc[nH]c(=O)c1O)n1cc(C#Cc2ccc(CN3CCOCC3)cc2)cc1CO [Compound 79, N-(2-(5-hydroxy-6-oxo-1,6-dihydropyrimidin-4-yl)ethyl)-2-(hydroxymethyl)-4-((4-(morpholinomethyl)phenyl)ethynyl)-1H-pyrrole-1-carboxamide]
- MIC (K. pneumoniae): > 32 µg/mL
- MIC (E. coli): 8 to 32 µg/mL (≈ 16.8 to 67 µM)

SMILES: O=c1cccc(CC(CO)c2ccc(C#Cc3ccc(CN4CCOCC4)cc3)cc2)n1O (stereo not drawn) [Compound 138, 1-hydroxy-6-(3-hydroxy-2-(4-((4-(morpholinomethyl)phenyl)ethynyl)phenyl)propyl)pyridin-2(1H)-one]
- MIC (K. pneumoniae): 8 to 32 µg/mL (≈ 18 to 72 µM)
- MIC (E. coli): 8 to 32 µg/mL (≈ 18 to 72 µM)

SMILES: C=CCNCC(Cc1ccc(C#CC#Cc2cnc(C)nc2)cc1)c1nc[nH]c(=O)c1O (stereo not drawn) [Compound 37, 6-(1-(allylamino)-3-(4-((2-methylpyrimidin-5-yl)buta-1,3-diyn-1-yl)phenyl)propan-2-yl)-5-hydroxypyrimidin-4(3H)-one]
- MIC (K. pneumoniae): > 32 µg/mL
- MIC (E. coli): 8 to 32 µg/mL (≈ 18.8 to 75.2 µM)

SMILES: O=c1[nH]cnc(CCc2ccc(C#Cc3ccc(CNC4CC(O)C4)cc3)cn2)c1O (stereo not drawn) [Compound 15, 5-hydroxy-6-(2-(5-((4-(((3-hydroxycyclobutyl)amino)methyl)phenyl)ethynyl)pyridin-2-yl)ethyl)pyrimidin-4(3H)-one]
- MIC (K. pneumoniae): > 32 µg/mL
- MIC (E. coli): 8 to 32 µg/mL (≈ 19.2 to 76.8 µM)

SMILES: O=C(NCC(F)F)C(Cc1ccc(C#Cc2cnc(C(F)(F)F)nc2)cc1)c1nc[nH]c(=O)c1O (stereo not drawn) [Compound 27, N-(2,2-difluoroethyl)-2-(5-hydroxy-6-oxo-1,6-dihydropyrimidin-4-yl)-3-(4-((2-(trifluoromethyl)pyrimidin-5-yl)ethynyl)phenyl) propanamide]
- MIC (K. pneumoniae): > 32 µg/mL
- MIC (E. coli): > 32 µg/mL

SMILES: Nc1ccc(C#Cc2ccc(CC(C(=O)NCC(F)F)c3nc[nH]c(=O)c3O)cc2)cn1 (stereo not drawn) [Compound 28, 3-(4-((6-aminopyridin-3-yl)ethynyl)phenyl)-N-(2,2-difluoroethyl)-2-(5-hydroxy-6-oxo-1,6-dihydropyrimidin-4-yl)propanamide]
- MIC (K. pneumoniae): > 32 µg/mL
- MIC (E. coli): 8 to 32 µg/mL (≈ 18.2 to 72.8 µM)

SMILES: O=c1[nH]cnc(C(CNCCF)Cc2ccc(C#CC#CC3CC3)cc2)c1O (stereo not drawn) [Compound 68, 6-(1-(4-(cyclopropylbuta-1,3-diyn-1-yl)phenyl)-3-((2-fluoroethyl)amino)propan-2-yl)-5-hydroxypyrimidin-4(3H)-one]
- MIC (K. pneumoniae): > 32 µg/mL
- MIC (E. coli): > 32 µg/mL

SMILES: CC(C)C#CC#Cc1ccc(CC(CNCCF)c2nc[nH]c(=O)c2O)cc1 (stereo not drawn) [Compound 66, 6-(1-((2-fluoroethyl)amino)-3-(4-(5-methylhexa-1,3-diyn-1-yl)phenyl)propan-2-yl)-5-hydroxypyrimidin-4(3H)-one]
- MIC (K. pneumoniae): 8 to 32 µg/mL (≈ 21 to 83.9 µM)
- MIC (E. coli): 8 to 32 µg/mL (≈ 21 to 83.9 µM)

SMILES: OCC(Cc1nncc(O)c1O)c1ccc(C#Cc2ccc(CN[C@H]3CCOC3)cc2)cc1 (single isomer, unassigned) [Compound 102]
- K. pneumoniae MIC (K. pneumoniae): C (C: >8.0 μg/mL to ≤32 μg/mL)
- E. coli MIC (E. coli): C (C: >8.0 μg/mL to ≤32 μg/mL)

SMILES: O=C(NCC(F)F)C(Cc1ccc(C#CC#CC2CC2)c(F)c1)c1nc[nH]c(=O)c1O (stereo not drawn) [Compound 61, 3-(4-(cyclopropylbuta-1,3-diyn-1-yl)-3-fluorophenyl)-N-(2,2-difluoroethyl)-2-(5-hydroxy-6-oxo-1,6-dihydropyrimidin-4-yl)propanamide]
- MIC (K. pneumoniae): 1 to 8 µg/mL (≈ 2.33 to 18.6 µM)
- MIC (E. coli): 1 to 8 µg/mL (≈ 2.33 to 18.6 µM)

SMILES: C=CCNCC(Cc1ccc(C#CC#Cc2cn[nH]c2)cc1)c1nc[nH]c(=O)c1O (stereo not drawn) [Compound 67, 6-(1-(4-((1H-pyrazol-4-yl)buta-1,3-diyn-1-yl)phenyl)-3-(allylamino)propan-2-yl)-5-hydroxypyrimidin-4(3H)-one]
- MIC (K. pneumoniae): > 32 µg/mL
- MIC (E. coli): 8 to 32 µg/mL (≈ 20 to 80.1 µM)

SMILES: CC(Cc1ccc(C#Cc2ccc(CN3CCOCC3)cc2)cc1)c1nc[nH]c(=O)c1O (stereo not drawn) [Compound 104, 5-hydroxy-6-(1-(4-((4-(morpholinomethyl)phenyl)ethynyl)phenyl)propan-2-yl)pyrimidin-4(3H)-one]
- MIC (K. pneumoniae): 1 to 8 µg/mL (≈ 2.33 to 18.6 µM)
- MIC (E. coli): 1 to 8 µg/mL (≈ 2.33 to 18.6 µM)

Results, then the molecule that gave them:

- MIC (K. pneumoniae): 1 to 8 µg/mL (≈ 2.4 to 19.2 µM)
- MIC (E. coli): < 1 µg/mL
SMILES: O=c1[nH]cnc(CCc2ccc(C#Cc3ccc(CN4CCOCC4)cn3)cc2)c1O [Compound 16, 5-hydroxy-6-(4-((5-(morpholinomethyl)pyridin-2-yl)ethynyl)phenethyl) pyrimidin-4(3H)-one]

- MIC (K. pneumoniae): > 32 µg/mL
- MIC (E. coli): > 32 µg/mL
SMILES: O=c1[nH]cnc(C(CNCCF)Cc2ccc(C#Cc3ccc(CN4CCOCC4)nc3)cc2)c1O (stereo not drawn) [Compound 31, 6-(1-((2-fluoroethyl)amino)-3-(4-((6-(morpholinomethyl)pyridin-3-yl)ethynyl)phenyl)propan-2-yl)-5-hydroxypyrimidin-4(3H)-one]

- K. pneumoniae MIC (K. pneumoniae): B (B: >1 μg/mL to ≤8.0 μg/mL)
- E. coli MIC (E. coli): B (B: >1 μg/mL to ≤8.0 μg/mL)
SMILES: OCC(Cc1nncc(O)c1O)c1ccc(C#Cc2ccc(CN[C@H]3CCOC3)cc2)cc1 (single isomer, unassigned) [Compound 101]

- MIC (K. pneumoniae): > 32 µg/mL
- MIC (E. coli): > 32 µg/mL
SMILES: O=c1[nH]cnc(C(CNCCF)Cc2ccc(C#Cc3ccc(CN4CCOCC4)cn3)cc2)c1O (stereo not drawn) [Compound 30, 6-(1-((2-fluoroethyl)amino)-3-(4-((5-(morpholinomethyl)pyridin-2-yl)ethynyl)phenyl)propan-2-yl)-5-hydroxypyrimidin-4(3H)-one]

- MIC (K. pneumoniae): > 32 µg/mL
- MIC (E. coli): > 32 µg/mL
SMILES: CC(=O)NCC(Cc1ccc(C#Cc2ccc(CN3CCOCC3)cc2)cc1)c1c(O)cn[nH]c1=O (stereo not drawn) [Compound 131, N-(2-(5-hydroxy-3-oxo-2,3-dihydropyridazin-4-yl)-3-(4-((4-(morpholinomethyl)phenyl)ethynyl)phenyl)propyl)acetamide]

- MIC (K. pneumoniae): 8 to 32 µg/mL (≈ 16.4 to 65.8 µM)
- MIC (E. coli): 8 to 32 µg/mL (≈ 16.4 to 65.8 µM)
SMILES: CC(=O)NCC(Cc1ccc(C#Cc2ccc(CN3CCOCC3)cc2)cc1)c1nncc(O)c1O (stereo not drawn) [Compound 11, N-(2-(4,5-dihydroxypyridazin-3-yl)-3-(4-((4-(morpholinomethyl)phenyl)ethynyl)phenyl)propyl) acetamide]

- MIC (K. pneumoniae): > 32 µg/mL
- MIC (E. coli): 1 to 8 µg/mL (≈ 2.21 to 17.6 µM)
SMILES: C=CCNCC(Cc1ccc(C#CC#Cc2ccc(C(=O)O)cc2)cc1)c1nc[nH]c(=O)c1O (stereo not drawn) [Compound 35, 4-((4-(3-(allylamino)-2-(5 hydroxy-6-oxo-1,6-dihydropyrimidin-4-yl)propyl)phenyl)buta-1,3-diyn-1-yl)benzoic acid]

- MIC (K. pneumoniae): > 32 µg/mL
- MIC (E. coli): 8 to 32 µg/mL (≈ 18.9 to 75.7 µM)
SMILES: O=c1[nH]cnc(CCN2CCC(C#Cc3ccc(CN4CCOCC4)cc3)CC2)c1O [Compound 78, 5-hydroxy-6-(2-(4-((4-(morpholinomethyl)phenyl)ethynyl)piperidin-1-yl)ethyl)pyrimidin-4(3H)-one]

- MIC (K. pneumoniae): > 32 µg/mL
- MIC (E. coli): > 32 µg/mL
SMILES: OCC(Cc1nccc(O)c1O)c1ccc(C#Cc2ccc(CN3CCOCC3)cc2)cc1 (stereo not drawn) [Compound 134, 2-(3-hydroxy-2-(4-((4-(morpholinomethyl)phenyl)ethynyl)phenyl)propyl)pyridine-3,4-diol]

- MIC (K. pneumoniae): > 32 µg/mL
- MIC (E. coli): 8 to 32 µg/mL (≈ 16.4 to 65.8 µM)
SMILES: CO/N=C(\C)C(Cc1ccc(C#Cc2ccc(CN3CCOCC3)cc2)cc1)c1ncnc(O)c1O (stereo not drawn) [Compound 116, (E)-3-(5,6-dihydroxypyrimidin-4-yl)-4-(4-((4-(morpholinomethyl)phenyl)ethynyl)phenyl)butan-2-one O-methyl oxime]

- MIC (K. pneumoniae): 8 to 32 µg/mL (≈ 19.2 to 76.8 µM)
- MIC (E. coli): 1 to 8 µg/mL (≈ 2.4 to 19.2 µM)
SMILES: O=c1ccoc(CNc2ccc(C#Cc3ccc(CN4CCOCC4)cc3)cc2)c1O [Compound 109, 3-hydroxy-2-(((4-((4-(morpholinomethyl)phenyl)ethynyl)phenyl)amino)methyl)-4H-pyran-4-one]

- MIC (K. pneumoniae): 8 to 32 µg/mL (≈ 18.1 to 72.5 µM)
- MIC (E. coli): 1 to 8 µg/mL (≈ 2.26 to 18.1 µM)
SMILES: O=c1[nH]cnc(C2(Cc3ccc(C#Cc4ccc(CNC5CCOC5)cc4)cc3)CC2)c1O (stereo not drawn) [Compound 136, 5-hydroxy-6-(1-(4-((4-(((tetrahydrofuran-3-yl)amino)methyl)phenyl)ethynyl)benzyl)cyclopropyl)pyrimidin-4(3H)-one]

- MIC (K. pneumoniae): 1 to 8 µg/mL (≈ 2.4 to 19.2 µM)
- MIC (E. coli): < 1 µg/mL
SMILES: O=c1[nH]cnc(CCc2ccc(C#Cc3ccc(CN4CCOCC4)nc3)cc2)c1O [Compound 17, 5-hydroxy-6-(4-((6-(morpholinomethyl)pyridin-3-yl)ethynyl)phenethyl) pyrimidin-4(3H)-one]

- MIC (K. pneumoniae): 8 to 32 µg/mL (≈ 16.1 to 64.4 µM)
- MIC (E. coli): 1 to 8 µg/mL (≈ 2.01 to 16.1 µM)
SMILES: C=CCNCC(Cc1ccc(C#CC#Cc2ccc(C(=O)NCCO)cc2)cc1)c1nc[nH]c(=O)c1O (stereo not drawn) [Compound 34, 4-((4-(3-(allylamino)-2-(5-hydroxy-6-oxo-1,6-dihydropyrimidin-4-yl)propyl)phenyl)buta-1,3-diyn-1-yl)-N-(2-hydroxyethyl)benzamide]
